A short description of experiment [1]: Antioxidant activity assessed as concentration equivalent of 0.5 absorbance glutathione for potassium ferricyanide reduction after 20 min by spectrophotometric assay. The experiment is classed as functional.
Experiment [2] has as its system Radical scavenging activity. Description: Antioxidant activity assessed as DPPH radical scavenging activity at 1 mg/ml after 20 min by spectrophotometric analysis. Type of experiment: functional.

Regarding `COC(=O)C1=C(N)C=C(c2ccc(F)cc2)CC1c1ccc(F)cc1` (stereo unspecified), the Activity in experiment [1] was determined as 5.55 mg/mL; in experiment [2], 40.9%.

Regarding `COC(=O)c1c(OC)cc(-c2ccc(F)cc2)cc1-c1ccc(F)cc1`, the Activity worked out at 14.3 mg/mL in experiment [1] and 49.1% in experiment [2].

Consider `O/N=C1/C=C(c2ccc(F)cc2)CC(c2ccc(F)cc2)C1` (stereo unspecified), for which the figures for the Activity in experiment [1] and in experiment [2] were 4.54 mg/mL and 89.2%, respectively.

For `CCOC(=O)C1/C(=N/NC(N)=O)C=C(c2ccc(F)cc2)CC1c1ccc(F)cc1` (stereo unspecified), the Activity was 8.33 mg/mL in experiment [1] and 66.5% in experiment [2].

With `CCOC(=O)C1=C(N)C=C(c2ccc(F)cc2)CC1c1ccc(F)cc1` (stereo unspecified), the Activity in experiment [1] was 25 mg/mL; in experiment [2], 68%.

Take `CCOC(=O)c1c(OC)cc(-c2ccc(F)cc2)cc1-c1ccc(F)cc1`: the values for the Activity in experiment [1] and in experiment [2] were 22.7 mg/mL and 50.2%, respectively.

As to `N/N=C(N)/N=C1/C=C(c2ccc(F)cc2)CC(c2ccc(F)cc2)C1` (stereo unspecified), the Activity worked out at 4.03 mg/mL in experiment [1] and 89.2% in experiment [2].

Take `O=c1[nH][nH]c2c1C(c1ccc(F)cc1)CC(c1ccc(F)cc1)=C2` (stereo unspecified): the Activity was 1.81 mg/mL in experiment [1] and 95.9% in experiment [2].

As for `COC(=O)C1/C(=N/NC(N)=O)C=C(c2ccc(F)cc2)CC1c1ccc(F)cc1` (stereo unspecified), the values for the Activity in experiment [1] and in experiment [2] were 20 mg/mL and 65.4%, respectively.

For `O=C1Nc2ccccc2Nc2cc(-c3ccc(F)cc3)cc(-c3ccc(F)cc3)c21`, the Activity was 2.64 mg/mL in experiment [1] and 58.7% in experiment [2].

Regarding `N[C@@H](CCC(=O)N[C@@H](CS)C(=O)NCC(=O)O)C(=O)O`, the Activity in experiment [1] came out at 0.595 mg/mL; in experiment [2], 92.1%.

On to `O=c1c2c(-c3ccc(F)cc3)cc(-c3ccc(F)cc3)cc2[nH]n1-c1ccccc1`, for which the Activity in experiment [1] was found to be 5.55 mg/mL; in experiment [2], 95.2%.

Take `O=c1c2c([nH]n1-c1ccc([N+](=O)[O-])cc1)C=C(c1ccc(F)cc1)CC2c1ccc(F)cc1` (stereo unspecified): the results for the Activity in experiment [1] and in experiment [2] were 3.52 mg/mL and 94.4%, respectively.

The values are drawn from ChEMBL document CHEMBL3046089, “A study on the reactions of alkyl 4,6-bis(4-fluorophenyl)-2-oxocyclohex-3-ene-1-carboxylate and in vitro antioxidant activity of derivatives” (Med Chem Res, 2013).
